# Publication PMC8465649, “Semaphorin 3A—Glycosaminoglycans Interaction as Therapeutic Target for Axonal Regeneration” (Pharmaceuticals, 2021)
# Ends that are not written are not given here.
# Legend:
# [1] = SPR binding to immobilized biotinylated CS-A
# Experimental: (§1) The interaction between Sema3A basic tail and GAGs was analyzed using several methods: chromatographic elution as a function of NaCl concentration based on affinity to a heparin sepharose column, surface plasmon resonance (SPR), NMR [52], and molecular dynamics simulations. Firstly, we observed that SCTWT binds to a heparin-Sepharose column and the protein is only released at about 1M NaCl (>50% of buffer B, Figure 3c), similar to the widely reported antithrombin–heparin interaction, indicating a SCTWT-heparin high-affinity, in the 10^−7–10^−9 M range [54]. Next, SPR measurements were performed to characterize protein–heparin binding kinetics. […]
# All SPR experiments were performed on a Biacore T-100 instrument (Cytiva, formally GE Healthcare, Marlborough, MA, USA) in HBS-T buffer (10 mM HEPES, 150 mM NaCl, 0.05% Tween-20, pH 7.5) at 25 °C. […] The SPR experiments were performed in duplicate and the dissociation constant (Kd) values and binding levels are expressed as the mean and standard deviation from the individual experiments.
# [2] = Heparin affinity chromatography (NaCl gradient elution); assay type: binding
# Experimental: Figure 3 SPR sensorgrams of increasing amounts (0 to 1 μM) of the SCTWT construct flown over (HBS-T buffer) (a) immobilized biotinylated heparin (350 RU) (b) CD Spectra of 5 μM Sema3A C-terminal region in the absence (blue) and the presence of 1 μM UFH (orange), measured at pH 5.5 in 10 mM NaP. […] SCTWT was loaded onto a HiTrap Heparin column equilibrated with […] (pH 7.5), and eluted with a linear gradient to 2 M NaCl. Left ordinate axis, absorbance; righ ordinate axis, % NaCl (% B).
# A prepacked 1-mL HiTrap Heparin HP affinity column (GE Healthcare) was used on a AKTA purifier system to perform heparin affinity chromatography. Then, 100 μL of SCT samples at ~100 μM were injected and run at 1 mL/min in a linear gradient with buffer A = 10 mM Tris-HCl, pH = 7.5 and buffer B = 10 mM Tris-HCl, 2M NaCl, pH = 7.5.
# [3] = NMR competition (WaterLOGSY / spin-lock filtered 1H): displacement of FS2/FS3 peptides from heparin agarose resin; assay type: binding; conditions: pH 7.5; for displacement of FS3 peptide from heparin agarose resin: spin-lock filtered 1D 1H NMR, 1 mM peptide, 1 mM peptoid
# Experimental: NMR competition experiments involved the acquisition of 1D-^1H WaterLOGSY or spin-lock filtered NMR spectra. Thus, FS2 peptide is displaced from heparin agarose resin by CSIC02 (1:1 peptoid/FS2, both 1 mM), but not by CSIC03 (Figure S15). […] We reasoned that if CSIC02 was able to interact with GAG and displace FS2/FS3 basic peptides, it may also interfere with SCTWT–heparin interaction. To investigate if CSIC02 could displace SCTWT from heparin dp14 and to define the SCTWT residues affected, 2D NMR ^1H-^15N HSQC CSP experiments were used. Figure 8a illustrates the chemical shift effects of CSIC02 addition to a sample of SCTWT containing dp14 heparin. […] In Figure 8b, we display the chemical shift perturbation of SCTWT NMR spectra in the presence of dp14 and CSIC02. Thus, as the two CSP plots in Figure 4b and Figure 8b were calculated using as reference SCTWT alone in solution, we can compare them directly. […] Moreover, splitting of signals for some residues (R733, R734, and Q735 in the first GAG-binding region) was observed (Figure 8c). This observation is compatible with the presence of different species in slow chemical exchange in solution, with partial detachment of SCTWT from heparin. The amount of CSIC02 used in these experiments can be rationalized considering that the SCTWT has ca. 12 positive charges at neutral pH (Figure S18), while CSIC02 is tricationic. Since the binding is mediated by ionic polar interactions, a large excess of CSIC02 is needed to counterbalance the SCTWT-dp14 binding.
# Next, 1D ^1H T1ρ relaxation filtered and WaterLOGSY NMR experiments were acquired at 25 °C on a 500-MHz spectrometer (Varian Inova; Agilent Technologies, Santa Clara, CA, USA) equipped with an AutoX inverse double-resonance probe with a z-shielded pulsed-field gradient coil. The samples were prepared in a 5-mm Wilmad NMR 528-PP tubes with 10 mM Tris-d11 (for peptide/GAG samples) and 150 mM NaCl dissolved in 90% H2O/10% D2O at pH 7.5. All spectra were obtained with a sweep width of 8 kHz and 16,384 acquired data points. The experiments were recorded using the standard pulse sequence in the (WLOGSY_ES) Chempack library, with excitation sculpting to suppress water resonances. For Water-LOGSY experiments, the first water-selective 180° pulse was 25 ms long. The spectra were acquired with 1200 transients and a spin-lock pulse of 50 ms at 3.7 kHz. To phase Water-LOGSY spectra correctly, it is necessary to use an internal reference compound. In our case, the reference is the residual ethanol absorbed/bonded in heparin-agarose resin (this interaction was previously confirmed with T1ρ filtered experiments), which appears as a positively phased signal. […]
# [4] = SPR binding to immobilized biotinylated heparin; conditions: Table S3
# Experimental: as §1
# All SPR experiments were performed on a Biacore T-100 instrument (Cytiva, formally GE Healthcare, Marlborough, MA, USA) in HBS-T buffer (10 mM HEPES, 150 mM NaCl, 0.05% Tween-20, pH 7.5) at 25 °C. […] The SPR experiments were performed in duplicate and the dissociation constant (Kd) values and binding levels are expressed as the mean and standard deviation from the individual experiments. […]
# [5] = Potentiometric titration (protonation state); assay type: physicochemical; conditions: 25 °C, 0.15 M NaCl
# Experimental: UV absorbance was measured using a SpectraMax M5 spectrophotometer (Molecular Devices, Sunnyvale, CA, USA). The experiments were performed with a 10 μM methylene blue (MB) solution in 5 mM Tris-HCl buffer at pH 7.5, to which increasing amounts of heparin were added to saturation of the MB dye. For the competition assays, solutions of MB and heparin at fixed concentrations were titrated with increasing amounts of SICHI or CSIC02–04 peptoids. Then, the relative increase in absorbance at 665 nm, due to release of MB from the MB–heparin complex when adding either SICHI or CSIC02–04 to the cuvette, can be plotted vs. the charge ratio considering their respective concentrations and that all the peptoids have three positive charges, and heparin has four negative charges per disaccharide unit. With this information, the charge excess for 50% of displacement of the MB dye (CE50) for each compound can be calculated for comparison. Potentiometric titrations were carried out in a reaction vessel thermostated with a water bath at 25.0 ± 0.1 °C under nitrogen atmosphere, and 0.15 M NaCl was used as the supporting electrolyte. The titrant was delivered by a precision microburette. The potentiometric measurements were made with a pH-mV meter. The reference electrode was an Ag/AgCl electrode in saturated KCl solution. The acquisition of the emf data was performed with the computer program Tiamo 2.3.1. […]
# [6] = system: Sema3A chemorepulsive activity; parameters: method as in PMID 19615921; conditions: cited from earlier work
# Sema3A = system: Sema3A; parameters: method as in PMID 27028639; conditions: cited from earlier work
# Nrp1 = system: Nrp1; parameters: method as in PMID 27028639; conditions: cited from earlier work
# [7] = target: the molecule itself; assay: 1H-15N NMR spectra; 1H-15N NMR spectra of LCTWT acquired without and with reducing agent TCEP; monomer and dimer
molecule,measurement,setting,value
"SCTRR/QH: SCT construct bearing two mutations, R730Q and R733H (VWKRDQKQHRQRPGHTPGNSNKWKHLQENKKGRNRRTHEFERAPRSV; UniProt Q14563 725-771, looked up, variant R730Q R733H)",binding to CS-A,[1]; immobilized biotinylated CS-A,completely abrogated
same,elution of the mutated protein relative to SCTWT,[2]; heparin affinity chromatography,slightly earlier elution
CCN(CC)CCNCC(=O)N(CCN1CCCC1)CC(=O)NCCC1CCCN1C (stereo not drawn) [CSIC03],displacement of FS2 peptide from heparin agarose resin,"[3]; WaterLOGSY, 1:1 peptoid/FS2, both 1 mM",not
same,displacement of FS3 peptide from heparin agarose resin,[3],incapable to displace
"FS2: Sema3A C-terminal peptide 725-736, VWKRDRKQRRQR",fold stronger affinity to heparin compared to NFS3 peptide,[4],60 fold
"SCTWT: recombinant Sema3A C-terminal polybasic tail construct, residues 725–771 (VWKRDRKQRRQRPGHTPGNSNKWKHLQENKKGRNRRTHEFERAPRSV; UniProt Q14563 725-771, looked up, fragment)",affinity for heparin versus CS-A,[1]; comparison of heparin and CS-A chips,higher affinity to heparin than to CS-A
CCN(CC)CCN(CC(=O)N(CCN1CCCC1)CC(=O)NCCC1CCCN1C)C(=O)OCc1ccccc1 (stereo not drawn) [CSIC04],displacement of FS3 peptide from heparin agarose resin,[3],incapable to displace
CCN(CC)CCNCC(=O)N(CCN1CCCC1)CC(=O)N(CCC1CCCN1C)CC(N)=O (stereo not drawn) [SICHI],protonation state at neutral pH,[5],triprotonated
same,in vitro effect on Sema3A chemorepulsive activity,[6],inhibition
same,binding to Sema3A,Sema3A,neither Sema3A or Nrp1 bind
same,binding to Nrp1,Nrp1,neither Sema3A or Nrp1 bind
"LCTWT: recombinant Sema3A C-terminal construct 716-771 incorporating the cysteine (NTMDEFCEQVWKRDRKQRRQRPGHTPGNSNKWKHLQENKKGRNRRTHEFERAPRSV; also: post-translational modification of the N-terminus, kind not given here)",NaCl concentration at elution under reducing conditions,[2]; 5 mM DTT,~ 0.92 M NaCl
same,NaCl concentration at elution peak (single or major peak),"[2]; linear gradient to 2 M NaCl, Tris-HCl pH 7.5",~ 1.12 M NaCl
same,NaCl concentration at minor elution peak,"[2]; linear gradient to 2 M NaCl, minor peak (monomeric form)",~ 0.92 M NaCl
"recombinant Sema3A C-terminal construct incorporating the cysteine (LCTWT, 716-771) (domain or fragment, human, UniProt Q14563 716-771, looked up, also: post-translational modification of the N-terminus, kind not given here, Semaphorin 3A (Sema3A), human, C-terminal region 716-771 with the cysteine (Cys722 as printed) between the Ig domain and the basic tail; The methods say that the SCT constructs were made without any fusion tag in E. coli BL21 (DE3) and purified by cation exchange and reverse phase; source: recombinant) NTMDEFCEQVWKRDRKQRRQRPGHTPGNSNKWKHLQENKKGRNRRTHEFERAPRSV",binding result,[7],binds
